Results published in US20050272707A1, “Method for preventing or reducing secondary fractures after hip fracture” (priority 2002, published 2005).
Entries after “also recorded” stand apart in the source; their conditions may differ.

Tests used:
[1] = test system: subsequent osteoporotic fractures after hip fracture; test: placebo-controlled study of intravenous zoledronic acid in preventing subsequent osteoporotic fractures after a hip fracture; format: in vivo, human patients; conditions: patients after recent surgical repair of hip fracture; 5 mg i.v. once per year plus vitamin D and calcium vs vitamin D and calcium alone; 12 and 24 months
From the text: “A Multinational, multicenter, double-blind, randomized, placebo-controlled, parallel-group study assessing the efficacy of intravenous zoledronic acid in preventing subsequent osteoporotic fractures after a hip fracture” is undertaken.
This will be a multicenter, randomized, double-blind, placebo-controlled, parallel group trial in men and women. Patients undergoing recent surgical repair of a low-trauma hip fracture will be eligible for enrollment. There will be at least 3 study contacts with patients after randomization within the first 24 months. Patients will have additional visits annually until 211 patients have reached the primary endpoint. The final visit for patients will be contingent on when this endpoint is achieved. Once the endpoint is achieved all patients will need to come in for a final visit. The final visit will be no less than 30 days from the patient's last dose of study medication or no more than 90 days after the day 211 patients have reached the primary endpoint. […]
The primary efficacy endpoint is time to first clinical fracture. Between treatment differences will be evaluated using a log-rank test to compare the time to clinical fracture between the two treatment groups. […]

[2] = stability of diluted infusion solution; format: physicochemical; conditions: diluted with infusion media, 2-8° C.
Method: The cumulative time between dilution with infusion media, storage in a refrigerator and end of administration must not be longer than 24 hours. Ideally, diluted zoledronic acid solutions should be used immediately. However, if diluted zoledronic acid solutions cannot be used immediately, the solutions must be refrigerated at temperatures between 2-8° C. Before administration, the solution should be allowed to slowly warm to room temperature again.

[3] = test system: bone resorption; conditions: variety of assays of bone metabolism; cited from earlier work
[4] = test system: bone resorption; conditions: cited from earlier work

Structure (SMILES): O=P(O)(O)C(O)(Cn1ccnc1)P(=O)(O)O [zoledronic acid, 1-hydroxy-2-(imidazol-1-yl)ethane-1,1-diphosphonic acid]
- rate of subsequent (secondary) osteoporotic fractures [1]: significant reduction in secondary osteoporotic fractures; also recorded: significantly reduces the rate of all subsequent osteoporotic skeletal fractures
- stability of diluted infusion solutions [2]: at least 24 hours
- concentrations at which inhibition of bone resorption in vitro was demonstrated [3]: 0.3 to 30 nM
- untoward effects on bone formation or mineralization ([4]; at 0.3-30 nM in vitro and 0.3-30 μg/kg in vivo): without exerting any untoward effects on either bone formation or mineralization
- doses at which inhibition of bone resorption in vivo was demonstrated ([4]; in vivo): 0.3 to 30 µg/kg
